Drawing on patent US9561228B2 (Celgene Avilomics Research, Inc., priority 2013, dated 2017), this text covers IC50, EC50 and GI50 for 21 compounds.

Some results are limits rather than exact numbers.

Experiment [1] has as its target T1, MEK1 activated ERK1 (Homo sapiens, UniProt P27361).
T1 construct: purchased Millipore (Billerica, Mass.) 14-439-K
Nature of the experiment: Omnia continuous-read kinase assay for potency against MEK1 activated ERK1. In kind it is biochemical. Particulars: MEK1 activated ERK1, ATP at KM; read-out: ERK1 Omnia WT ATP KM IC50. A digest of the protocol:
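Apparent IC50 came from initial reaction slopes (RFU vs time) plotted against log inhibitor with a variable-slope fit. Reactions were started with ERK1 (4 nM final) added to 50 μM ATP, roughly at its appKM, and 10 μM Sox-conjugated ST17 peptide in 20 mM Tris pH 7.5, 5 mM MgCl2. Fluorescence was monitored every 71 seconds.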

Experiment [2] relates to ERK1/2 phosphorylation of p90RSK in HCT116 cells. Nature of the experiment: Detection of total and phospho-RSK by MSD ELISA (HCT116). In kind it is cell-based. Particulars: Homo sapiens, HCT-116, read-out: ERK1/ERK2 PRSK HCT116 EC50. A digest of the protocol:
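HCT116 cells treated with compound in RPMI/10% FBS for 2 h at 37° C, then lysed. Phospho-RSK (Ser380) and total RSK in lysates measured by MSD sandwich electrochemiluminescence ELISA as a readout of ERK1/2 activity.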
On the technique in general: An ELISA detects its analyte on a solid surface through an enzyme-linked reagent.

For experiment [3], the system named is A375 cells (malignant melanoma). Nature of the experiment: Inhibition of cancer cell proliferation, A375 (CellTiterGlo, 72 hours). In kind it is cell-based. Particulars: Homo sapiens, A-375. A digest of the protocol: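 A375 melanoma cells, 3000/well, exposed 72 h at 37 °C to compound in 3-fold serial dilutions (solution added as 2× stock starting at 5,000 nM in serum-free DMEM). CellTiterGlo luminescence converted to cell number via standard curve; % inhibition vs untreated control, GI50 from curve fit.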
(In ATP-based viability assays light output follows the ATP content of the culture.)

T1 sequence (P27361 whole entry): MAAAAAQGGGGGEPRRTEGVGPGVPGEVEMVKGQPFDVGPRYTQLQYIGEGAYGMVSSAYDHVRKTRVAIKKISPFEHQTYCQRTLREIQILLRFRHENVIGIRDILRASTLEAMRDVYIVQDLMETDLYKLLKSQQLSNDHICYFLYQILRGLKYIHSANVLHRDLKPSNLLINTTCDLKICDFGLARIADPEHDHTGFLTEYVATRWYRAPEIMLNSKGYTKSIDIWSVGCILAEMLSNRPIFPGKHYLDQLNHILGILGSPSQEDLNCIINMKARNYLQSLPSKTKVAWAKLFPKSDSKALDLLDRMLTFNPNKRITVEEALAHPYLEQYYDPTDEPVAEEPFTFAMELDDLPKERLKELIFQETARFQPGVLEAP

Usually IC50 stands for the concentration that inhibits the measured activity by half. One may read the GI50 as the concentration giving 50% growth inhibition. Higher therefore signals lower sensitivity of the cells. Turning to `C=CC(=O)Nc1ccccc1Nc1nc(Nc2cc(OC)cc(OC)c2)ncc1C(F)(F)F` [Compound I-338, N-(2-((2-((3,5-dimethoxyphenyl)amino)-5-(trifluoromethyl)pyrimidin-4-yl)amino)phenyl)acrylamide], the IC50 in experiment [1] lay within 101 to 500 nM. Moreover, the EC50 in experiment [2] was below 100 nM. This compound also registered a GI50 in experiment [3] below 100 nM.

On to `C=CC(=O)Nc1ccccc1Nc1nc(Nc2ccnnc2)ncc1C(F)(F)F` [Compound I-293, N-(2-((2-(Pyridazin-4-ylamino)-5-(trifluoromethyl)pyrimidin-4-yl)amino)phenyl)acrylamide], for which the concentration for half-maximal inhibition (IC50) in experiment [1] was 101 to 500 nM. Besides, the EC50 in experiment [2] was below 100 nM. For the same compound, the GI50 in experiment [3] is below 100 nM.

Take `C=CC(=O)Nc1ccccc1Nc1nc(Nc2cc(N[C@H]3CC[C@@H](O)CC3)nc(OC)c2)ncc1C(F)(F)F` [Compound I-292]: the half-maximal inhibitory concentration (IC50) in experiment [1] is below 100 nM. Moreover, the EC50 in experiment [2] was below 100 nM. In experiment [3], this compound yielded a 50% growth inhibitory concentration (GI50) below 100 nM.

In the case of `C=CC(=O)Nc1cc(C)ccc1Nc1nc(Nc2cc(OC)nc(N3CC(O)C3)c2)ncc1C(F)(F)F` [Compound I-328, N-(2-((2-((2-(3-hydroxyazetidin-1-yl)-6-methoxypyridin-4-yl)amino)-5-(trifluoromethyl)pyrimidin-4-yl)amino)-5-methylphenyl)acrylamide], in experiment [2], the EC50 was below 100 nM. The same compound gave a GI50 in experiment [3] below 100 nM.

On to `C=CS(=O)(=O)Nc1cc(C)ccc1Nc1nc(Nc2cc(OC)ncc2C)ncc1C(F)(F)F` [Compound I-333, N-(2-((2-((2-methoxy-5-methylpyridin-4-yl)amino)-5-(trifluoromethyl)pyrimidin-4-yl)amino)-5-methylphenyl)ethenesulfonamide], for which the IC50 in experiment [1] lay in the range of 101 to 500 nM. Also, the EC50 in experiment [2] was above 1000 nM. Further, the concentration for 50% growth inhibition (GI50) in experiment [3] is above 1000 nM.

For `C=CC(=O)Nc1ccccc1Nc1nc(Nc2cc(OC)ccc2C)ncc1C(F)(F)F` [Compound I-340, N-(2-((2-((5-methoxy-2-methylphenyl)amino)-5-(trifluoromethyl)pyrimidin-4-yl)amino)phenyl)acrylamide], the IC50 in experiment [1] lay within 101 to 500 nM. In addition, the EC50 in experiment [2] was 101 to 500 nM. This compound also gave a GI50 in experiment [3] of 101 to 500 nM.

As to `C=CC(=O)Nc1cc(C)ccc1Nc1nc(Nc2cc(NC3CC3)nc(OC)c2)ncc1C(F)(F)F` [Compound I-337, N-(2-((2-((2-(cyclopropylamino)-6-methoxypyridin-4-yl)amino)-5-(trifluoromethyl)pyrimidin-4-yl)amino)-5-methylphenyl)acrylamide], in experiment [1], the IC50 is 501 to 999 nM. Also, in experiment [2], the EC50 was below 100 nM. Also, the GI50 in experiment [3] was below 100 nM.

For `C=CC(=O)Nc1ccccc1Nc1nc(Nc2cc(OC)nc(N3CCN(C)CC3)c2)ncc1C(F)(F)F` [Compound I-324, N-(2-((2-((2-methoxy-6-(4-methylpiperazin-1-yl)pyridin-4-yl)amino)-5-(trifluoromethyl)pyrimidin-4-yl)amino)phenyl)acrylamide], the EC50 in experiment [2] was below 100 nM. For the same compound, in experiment [3], the GI50 is below 100 nM.

For `C=CC(=O)Nc1cc(C)ccc1Nc1nc(Nc2cc(OC)cc(OC)c2)ncc1C(F)(F)F` [Compound I-339, N-(2-((2-((3,5-dimethoxyphenyl)amino)-5-(trifluoromethyl)pyrimidin-4-yl)amino)-5-methylphenyl)acrylamide], the EC50 in experiment [2] was 101 to 500 nM. Further, in experiment [3], the GI50 was below 100 nM.

As for `C=CC(=O)Nc1ccccc1Nc1nc(Nc2cc(OC)nc(N3CCCCC3)c2)ncc1C(F)(F)F` [Compound I-282, N-(2-((2-((2-Methoxy-6-(piperidin-1-yl)pyridin-4-yl)amino)-5-(trifluoromethyl)pyrimidin-4-yl)amino)phenyl)acrylamide], the IC50 in experiment [1] lay within 101 to 500 nM. The EC50 in experiment [2] is below 100 nM. Moreover, the GI50 in experiment [3] was below 100 nM.

Take `C=CC(=O)Nc1cc(OC)ccc1Nc1nc(Nc2cc(OC)ncc2C)ncc1C(F)(F)F` [Compound I-284, N-(5-Methoxy-2-((2-((2-methoxy-5-methylpyridin-4-yl)amino)-5-(trifluoromethyl)pyrimidin-4-yl)amino)phenyl)acrylamide]: the EC50 in experiment [2] is below 100 nM. For the same compound, the concentration for 50% growth inhibition (GI50) in experiment [3] is below 100 nM.

As for `C=CC(=O)Nc1cc(C)ccc1Nc1nc(Nc2cc(OC)ncc2C)ncc1C(F)(F)F` [Compound I-90, N-(2-((2-((2-Methoxy-5-methylpyridin-4-yl)amino)-5-(trifluoromethyl)pyrimidin-4-yl)amino)-5-methylphenyl)acrylamide], in experiment [2], the EC50 was in the range of 101 to 500 nM. The 50% growth inhibitory concentration (GI50) in experiment [3] was 101 to 500 nM.

Consider `C=CC(=O)Nc1cc(C)ccc1Nc1nc(Nc2cc(OC)nc(N(C)CCOC)c2)ncc1C(F)(F)F` [Compound I-336, N-(2-((2-((2-methoxy-6-((2-methoxyethyl)(methyl)amino)pyridin-4-yl)amino)-5-(trifluoromethyl)pyrimidin-4-yl)amino)-5-methylphenyl)acrylamide], for which the 50% inhibitory concentration (IC50) in experiment [1] was 501 to 999 nM. In addition, the EC50 in experiment [2] lay in the range of 101 to 500 nM. This compound also gave a GI50 in experiment [3] below 100 nM.

As to `C=CC(=O)Nc1ccccc1Nc1nc(Nc2cc(OC)nc(N3CCS(=O)(=O)CC3)c2)ncc1C(F)(F)F` [Compound I-291, N-(2-((2-((2-(1,1-Dioxidothiomorpholino)-6-methoxypyridin-4-yl)amino)-5-(trifluoromethyl)pyrimidin-4-yl)amino)phenyl)acrylamide], the EC50 in experiment [2] is below 100 nM. The compound also displayed a GI50 in experiment [3] below 100 nM.

Regarding `C=CC(=O)Nc1cc(OC)ccc1Nc1nc(Nc2cc(OC)nc(N3CCN(C)CC3)c2)ncc1C(F)(F)F` [Compound I-334, N-(5-methoxy-2-((2-((2-methoxy-6-(4-methylpiperazin-1-yl)pyridin-4-yl)amino)-5-(trifluoromethyl)pyrimidin-4-yl)amino)phenyl)acrylamide], in experiment [2], the EC50 was below 100 nM. For the same compound, the 50% growth inhibitory concentration (GI50) in experiment [3] is below 100 nM.

Turning to `C=CC(=O)Nc1ccccc1Nc1nc(Nc2cc(OC)nc(N3CCCC3)c2)ncc1C(F)(F)F` [Compound I-281, N-(2-((2-((2-Methoxy-6-(pyrrolidin-1-yl)pyridin-4-yl)amino)-5-(trifluoromethyl)pyrimidin-4-yl)amino)phenyl)acrylamide], in experiment [2], the EC50 is below 100 nM. For the same compound, in experiment [3], the GI50 is below 100 nM.

In the case of `C=CC(=O)Nc1cc(C(F)(F)F)ccc1Nc1nc(Nc2cc(OC)ncc2C)ncc1C(F)(F)F` [Compound I-323, N-(2-((2-((2-methoxy-5-methylpyridin-4-yl)amino)-5-(trifluoromethyl)pyrimidin-4-yl)amino)-5-(trifluoromethyl)phenyl)acrylamide], the half-maximal inhibitory concentration (IC50) in experiment [1] was 101 to 500 nM. Moreover, the EC50 in experiment [2] fell in the range of 101 to 500 nM. Moreover, the concentration for 50% growth inhibition (GI50) in experiment [3] lay within 101 to 500 nM.

Turning to `C=CC(=O)Nc1cc(C)ccc1Nc1nc(Nc2cc(OC)nc(N(C)C3CC3)c2)ncc1C(F)(F)F` [Compound I-342, N-(2-((2-((2-(cyclopropyl(methyl)amino)-6-methoxypyridin-4-yl)amino)-5-(trifluoromethyl)pyrimidin-4-yl)amino)-5-methylphenyl)acrylamide], the IC50 in experiment [1] lay in the range of 501 to 999 nM. Moreover, in experiment [2], the EC50 was 101 to 500 nM. In addition, the GI50 in experiment [3] fell in the range of 101 to 500 nM.

Regarding `C=CC(=O)Nc1cc(C)ccc1Nc1nc(Nc2cc(N[C@H]3CC[C@@H](O)CC3)nc(OC)c2)ncc1C(F)(F)F` [Compound I-326, N-(2-((2-((2-((cis-4-hydroxycyclohexyl)amino)-6-methoxypyridin-4-yl)amino)-5-(trifluoromethyl)pyrimidin-4-yl)amino)-5-methylphenyl)acrylamide], in experiment [1], the IC50 was in the range of 101 to 500 nM. The EC50 in experiment [2] is below 100 nM. In experiment [3], this compound came in with a 50% growth inhibitory concentration (GI50) below 100 nM.

On to `C=CC(=O)Nc1cc(C)ccc1Nc1nc(Nc2cc(OC)nc(N3CCN(C)CC3)c2)ncc1C(F)(F)F` [Compound I-325, N-(2-((2-((2-methoxy-6-(4-methylpiperazin-1-yl)pyridin-4-yl)amino)-5-(trifluoromethyl)pyrimidin-4-yl)amino)-5-methylphenyl)acrylamide], for which the IC50 in experiment [1] was 101 to 500 nM. Also, the EC50 in experiment [2] was below 100 nM. Further, in experiment [3], the GI50 was below 100 nM.

With `C=CC(=O)Nc1cc(F)ccc1Nc1nc(Nc2cc(OC)ncc2C)ncc1C(F)(F)F` [Compound I-322, N-(5-fluoro-2-((2-((2-methoxy-5-methylpyridin-4-yl)amino)-5-(trifluoromethyl)pyrimidin-4-yl)amino)phenyl)acrylamide], the EC50 in experiment [2] lay within 101 to 500 nM. The compound also displayed a GI50 in experiment [3] below 100 nM.
